Results from patent US9255101B2 (BIOPROJECT, priority 2012, dated 2016).

How the values were obtained:
human H4 receptor = human H4 receptor (Homo sapiens, UniProt Q9H3N8); assay: biochemical;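 further: radioligand displacement of a [3H]-labelled ligand from membranes of CHO cells stably expressing human H4 receptor, bound radioactivity counted on filters by liquid scintillation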

Row | Structure (SMILES) | melting point | Ki (human H4 receptor)
1 | CCCc1c(-c2ccccc2)nc2n1CCc1ccccc1C2OC1CCN(C)CC1 (stereo not shown) [Example 238, 4-(1-methylpiperidin-4-yloxy)-2-phenyl-1-propyl-9,10-dihydro-4H-3,10a-diaza-benzo[f]azulene] | 144 °C | < 300 nM
2 | Cc1c(C(=O)c2ccccc2)nc2n1CCc1ccccc1C2OC1CCN(C)CC1.O=CO (stereo not shown) [Example 202, [1-methyl-4-(1-methylpiperidin-4-yloxy)-9,10-dihydro-4H-3,10a-diaza-benzo[f]azulen-2-yl]phenylmethanone, formic acid salt] | 71 °C | < 1000 nM
3 | CN1CCC(OC2c3ccccc3CCn3cc(-c4ccc(NC(=O)C(C)(C)C)cc4)nc32)CC1 (stereo not shown) [Example 58, 2,2-dimethyl-N-{4-[4-(1-methylpiperidin-4-yloxy)-9,10-dihydro-4H-3,10a-diaza-benzo[f]azulen-2-yl]-phenyl}-propionamide] | 120 °C | < 300 nM
4 | CN1CCC(OC2c3cccc(Br)c3CCn3cc(-c4ccccc4)nc32)CC1 (stereo not shown) [Example 231, 8-Bromo-4-(1-methyl-piperidin-4-yloxy)-2-phenyl-9,10-dihydro-4H-3,10a-diaza-benzo[f]azulene] | 83 °C | < 300 nM
5 | Cc1c(C(=O)N(C)Cc2ccccc2)nc2n1CCc1ccccc1C2OC1CCN(C)CC1 (stereo not shown) [Example 203, 1-methyl-4-(1-methylpiperidin-4-yloxy)-9,10-dihydro-4H-3,10a-diaza-benzo[f]azulene-2-carboxylic acid benzylmethylamide] | 61 °C | < 1000 nM
6 | Cc1c(C(O)c2ccccc2)nc2n1CCc1ccccc1C2OC1CCN(C)CC1.O=CO (stereo not shown) [Example 201, [1-methyl-4-(1-methylpiperidin-4-yloxy)-9,10-dihydro-4H-3,10a-diaza-benzo[f]azulen-2-yl]phenylmethanol, formic acid salt] | 85 °C | < 1000 nM
7 | Cc1cccc2c1CCn1cc(-c3ccccc3)nc1C2OC1CCN(C)CC1 (stereo not shown) [Example 236, 8-methyl-4-(1-methylpiperidin-4-yloxy)-2-phenyl-9,10-dihydro-4H-3,10a-diaza-benzo[f]azulene] | 71 °C | < 300 nM
8 | Cc1c(C(=O)N(C)c2ccccc2)nc2n1CCc1ccccc1C2OC1CCN(C)CC1 (stereo not shown) [Example 204, 1-methyl-4-(1-methylpiperidin-4-yloxy)-9,10-dihydro-4H-3,10a-diaza-benzo[f]azulene-2-carboxylic acid methylphenylamide] | 75 °C | < 1000 nM
9 | CC(C)c1c(-c2ccccc2)nc2n1CCc1ccccc1C2OC1CCN(C)CC1.O=C(O)C(=O)O.O=C(O)C(=O)O (stereo not shown) [Example 243, 1-isopropyl-4-(1-methylpiperidin-4-yloxy)-2-phenyl-9,10-dihydro-4H-3,10a-diaza-benzo[f]azulene dioxalate] | 90 °C | < 300 nM
10 | Cc1ccccc1-c1cccc2c1CCn1cc(-c3ccccc3)nc1C2OC1CCN(C)CC1 (stereo not shown) [Example 239, 4-(1-methylpiperidin-4-yloxy)-2-phenyl-8-o-tolyl-9,10-dihydro-4H-3,10a-diaza-benzo[f]azulene] | 94 °C | < 1000 nM
11 | CN1CCC(OC2c3cccc(-c4cccc(N)c4)c3CCn3cc(-c4ccccc4)nc32)CC1 (stereo not shown) [Example 242, 3-[4-(1-methylpiperidin-4-yloxy)-2-phenyl-9,10-dihydro-4H-3,10a-diaza-benzo[f]azulen-8-yl]-phenylamine] | 120 °C | < 1000 nM
12 | CN1CCC(OC2c3ccccc3CCn3c2nc(-c2ccccc2)c3C=O)CC1 (stereo not shown) [Example 262, 4-(1-methylpiperidin-4-yloxy)-2-phenyl-9,10-dihydro-4H-3,10a-diaza-benzo[f]azulene-1-carbaldehyde] | 70 °C | < 300 nM
13 | C=CCCc1cccc2c1CCn1cc(-c3ccccc3)nc1C2OC1CCN(C)CC1.O=C(O)C(=O)O (stereo not shown) [Example 237, 8-but-3-enyl-4-(1-methylpiperidin-4-yloxy)-2-phenyl-9,10-dihydro-4H-3,10a-diaza-benzo[f]azulene, oxalate] | 107 °C | < 1000 nM
14 | CNc1cccc2c1CCn1cc(-c3ccccc3)nc1C2OC1CCN(C)CC1 (stereo not shown) [Example 244, methyl-[4-(1-methylpiperidin-4-yloxy)-2-phenyl-9,10-dihydro-4H-3,10a-diaza-benzo[f]azulen-8-yl]-amine] | 189 °C | < 1000 nM
15 | CN1CCC(OC2c3ccccc3CCn3c2nc(-c2ccc(C(=O)OC(C)(C)C)cc2)c3C#N)CC1 (stereo not shown) [Example 224, 4-[1-cyano-4-(1-methylpiperidin-4-yloxy)-9,10-dihydro-4H-3,10a-diaza-benzo[f]azulen-2-yl]-benzoic acid tert-butyl ester] | 95 °C | < 30 nM
16 | CN1CCC(OC2c3ccccc3CC(C)(C)n3cc(-c4ccccc4)nc32)CC1 (stereo not shown) [Example 230, 10,10-dimethyl-4-(1-methylpiperidin-4-yloxy)-2-phenyl-9,10-dihydro-4H-3,10a-diaza-benzo[f]azulene] | 85 °C | < 1000 nM
17 | Cc1c(-c2ccc(C3=CCN(C(=O)OC(C)(C)C)CC3)cc2)nc2n1CCc1ccccc1C2OC1CCN(C)CC1 (stereo not shown) [Example 168, 4-{4-[1-methyl-4-(1-methyl-piperidin-4-yloxy)-9,10-dihydro-4H-3,10a-diaza-benzo[f]azulen-2-yl]-phenyl}-3,6-dihydro-2H-pyridine-1-carboxylic acid tert-butyl ester] | 171 °C | < 30 nM
18 | CN1CCC(OC2c3cccc(Cc4ccccc4)c3CCn3cc(-c4ccccc4)nc32)CC1 (stereo not shown) [Example 233, 8-benzyl-4-(1-methylpiperidin-4-yloxy)-2-phenyl-9,10-dihydro-4H-3,10a-diaza-benzo[f]azulene] | 66 °C | < 1000 nM
19 | COc1cccc(-c2cccc3c2CCn2cc(-c4ccccc4)nc2C3OC2CCN(C)CC2)c1 (stereo not shown) [Example 241, 8-(3-methoxyphenyl)-4-(1-methylpiperidin-4-yloxy)-2-phenyl-9,10-dihydro-4H-3,10a-diaza-benzo[f]azulene] | 93 °C | < 300 nM
20 | CN1CCC(OC2c3cccc(CCc4ccccc4)c3CCn3cc(-c4ccccc4)nc32)CC1 (stereo not shown) [Example 249, 4-(1-methyl-piperidin-4-yloxy)-8-phenethyl-2-phenyl-9,10-dihydro-4H-3,10a-diaza-benzo[f]azulene] | 67 °C | < 1000 nM
21 | CCCNC(=O)Nc1ccc(-c2cn3c(n2)C(OC2CCN(C)CC2)c2ccccc2CC3)cc1 (stereo not shown) [Example 60, 1-{4-[4-(1-methylpiperidin-4-yloxy)-9,10-dihydro-4H-3,10a-diaza-benzo[f]azulen-2-yl]-phenyl}-3-propyl-urea] | 130 °C | < 300 nM
22 | CN1CCC(OC2c3ccccc3CCn3c2nc(-c2ccccc2)c3-c2ccccc2)CC1 (stereo not shown) [Example 252, 4-(1-methylpiperidin-4-yloxy)-1,2-diphenyl-9,10-dihydro-4H-3,10a-diaza-benzo[f]azulene] | 90 °C | < 300 nM

Continued, values first:

Row | melting point | Ki (human H4 receptor) | Structure (SMILES)
23 | 74 °C | < 30 nM | Cc1c(-c2ccsc2)nc2n1CCc1ccccc1C2OC1CCN(C)CC1 (stereo not shown) [Example 148, 1-methyl-4-(1-methylpiperidin-4-yloxy)-2-thiophen-3-yl-9,10-dihydro-4H-3,10a-diaza-benzo[f]azulene]
24 | 195 °C | < 1000 nM | CN1CCC(OC2c3ccccc3CCn3c2nc(I)c3C#N)CC1 (stereo not shown) [Example 221, 2-iodo-4-(1-methylpiperidin-4-yloxy)-9,10-dihydro-4H-3,10a-diaza-benzo[f]azulene-1-carbonitrile]
25 | 59 °C | < 300 nM | Cc1c(I)nc2n1CCc1ccccc1C2OC1CCN(C)CC1 (stereo not shown) [Example 133, 2-iodo-1-methyl-4-(1-methylpiperidin-4-yloxy)-9,10-dihydro-4H-3,10a-diaza-benzo[f]azulene]
26 | 168 °C | < 30 nM | Cc1c(-c2ccc(F)cc2)nc2n1CCc1ccccc1C2OC1CCN(C)CC1 (stereo not shown) [Example 154, 2-(4-fluorophenyl)-1-methyl-4-(1-methylpiperidin-4-yloxy)-9,10-dihydro-4H-3,10a-diaza-benzo[f]azulene]
27 | 139 °C | < 300 nM | COc1ccccc1-c1nc2n(c1C)CCc1ccccc1C2OC1CCN(C)CC1 (stereo not shown) [Example 149, 2-(2-methoxyphenyl)-1-methyl-4-(1-methylpiperidin-4-yloxy)-9,10-dihydro-4H-3,10a-diaza-benzo[f]azulene]
28 | 133 °C | < 30 nM | Cc1ccc(-c2nc3n(c2C)CCc2ccccc2C3OC2CCN(C)CC2)c(Cl)c1 (stereo not shown) [Example 157, 2-(2-chloro-4-methylphenyl)-1-methyl-4-(1-methylpiperidin-4-yloxy)-9,10-dihydro-4H-3,10a-diaza-benzo[f]azulene]
29 | 85 °C | < 1000 nM | CN1CCC(OC2c3ccccc3CCn3c2nc(I)c3C(N)=O)CC1 (stereo not shown) [Example 253, 2-iodo-4-(1-methylpiperidin-4-yloxy)-9,10-dihydro-4H-3,10a-diaza-benzo[f]azulene-1-carboxylic acid amide]
30 | 158 °C | < 30 nM | Cc1c(-c2ccc(Cl)cc2)nc2n1CCc1ccccc1C2OC1CCN(C)CC1 (stereo not shown) [Example 155, 2-(4-chlorophenyl)-1-methyl-4-(1-methylpiperidin-4-yloxy)-9,10-dihydro-4H-3,10a-diaza-benzo[f]azulene]
31 | 153 °C | < 30 nM | CN1CCC(OC2c3ccccc3CCn3c2nc(-c2ccccc2)c3I)CC1 (stereo not shown) [Example 247, 1-iodo-4-(1-methylpiperidin-4-yloxy)-2-phenyl-9,10-dihydro-4H-3,10a-diaza-benzo[f]azulene]
32 | 163 °C | < 300 nM | CN1CCC(OC2c3ccccc3CCn3c(I)cnc32)CC1 (stereo not shown) [Example 3, 1-iodo-4-(1-methylpiperidin-4-yloxy)-9,10-dihydro-4H-3,10a-diaza-benzo[f]azulene]
